Results: patent publication US20250042900A1 (priority 2022, published 2025)
Where a name gives a salt, the structure may show the parent alone.

Columns and labels:
[1] = biological target: T1, Adrenergic Receptor β2 (ADRB2) (Homo sapiens, UniProt P07550); assay: cAMP secondary messenger assay, antagonist format; assay type: cell-based; conditions: read-out: IC50 (μM) Antag./Blocker/Inhibitor
[2] = biological target: Opioid Receptor Mu (OPRM1) (Homo sapiens, UniProt P35372); assay: cell-based; conditions: cAMP, agonist, read-out: EC50 (μM) Agonist/Opener
[3] = biological target: T2, Opioid Receptor Delta 1 (OPRD1) (Homo sapiens, UniProt P41143); assay: cAMP secondary messenger assay, antagonist format; assay type: cell-based; conditions: read-out: IC50 (μM) Antag./Blocker/Inhibitor
T2 sequence (P41143 whole entry): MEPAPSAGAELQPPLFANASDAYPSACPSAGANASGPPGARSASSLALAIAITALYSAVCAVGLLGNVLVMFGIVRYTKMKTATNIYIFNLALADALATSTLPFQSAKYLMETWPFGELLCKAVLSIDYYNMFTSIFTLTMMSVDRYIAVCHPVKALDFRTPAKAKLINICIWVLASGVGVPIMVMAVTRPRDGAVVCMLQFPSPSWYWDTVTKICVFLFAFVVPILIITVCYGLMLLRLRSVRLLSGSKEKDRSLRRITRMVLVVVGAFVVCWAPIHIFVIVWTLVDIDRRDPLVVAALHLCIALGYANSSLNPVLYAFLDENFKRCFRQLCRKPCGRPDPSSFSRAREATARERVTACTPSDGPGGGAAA

[4] = biological target: Histamine Receptor H1 (HRH1) (Homo sapiens, UniProt P35367); assay: cell-based; conditions: Calcium Flux, antagonist, read-out: IC50 (μM) Antag./Blocker/Inhibitor
[5] = biological target: Arginine Vasopressin Receptor 1A (AVPR1A) (Homo sapiens, UniProt P37288); assay: Calcium flux secondary messenger assay, antagonist format; assay type: cell-based; conditions: read-out: IC50 (μM) Antag./Blocker/Inhibitor
[6] = biological target: T1, Adrenergic Receptor β2 (ADRB2); assay: cAMP secondary messenger assay, agonist format; assay type: cell-based; conditions: read-out: EC50 (μM) Agonist/Opener
[7] = biological target: T3, Rho Associated Coiled-Coil Containing Protein Kinase 1 (ROCK1) (Homo sapiens, UniProt Q13464); assay: Kinase binding assay (KINOMEscan); conditions: inhibitor, read-out: IC50 (μM) Antag./Blocker/Inhibitor
T3 construct: T7 phage fusion (most assays) or DNA tag for qPCR (the remaining kinases); made in house; host or cells: E. coli (BL21-derived, T7 phage display) or HEK-293

[8] = biological target: T4, Opioid Receptor Kappa 1 (OPRK1) (Homo sapiens, UniProt P41145); assay: cAMP secondary messenger assay, agonist format; assay type: cell-based; conditions: read-out: EC50 (μM) Agonist/Opener
T4 sequence (P41145 whole entry): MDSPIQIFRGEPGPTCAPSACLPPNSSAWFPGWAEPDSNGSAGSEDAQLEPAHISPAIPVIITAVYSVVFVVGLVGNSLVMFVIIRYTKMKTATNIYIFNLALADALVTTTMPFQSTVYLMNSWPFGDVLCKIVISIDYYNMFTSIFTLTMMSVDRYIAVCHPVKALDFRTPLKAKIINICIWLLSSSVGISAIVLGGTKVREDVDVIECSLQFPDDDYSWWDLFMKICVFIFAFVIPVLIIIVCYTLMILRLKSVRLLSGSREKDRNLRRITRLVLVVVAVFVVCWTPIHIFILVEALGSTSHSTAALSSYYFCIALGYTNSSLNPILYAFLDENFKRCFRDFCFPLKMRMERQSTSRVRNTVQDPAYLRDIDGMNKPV

PDE4D2 = biological target: T5, PDE4D2 (Homo sapiens, UniProt Q08499); assay: Enzymatic assay PDE4D2; assay type: biochemical; conditions: inhibitor, read-out: IC50 (μM) Antag./Blocker/Inhibitor
T5 construct: purchased Signal Chem

[9] = biological target: T4, Opioid Receptor Kappa 1 (OPRK1); assay: cAMP secondary messenger assay, antagonist format; assay type: cell-based; conditions: read-out: IC50 (μM) Antag./Blocker/Inhibitor
COX2 = biological target: T6, COX2 (Homo sapiens, UniProt P35354); assay: Enzymatic assay COX2; assay type: biochemical; conditions: inhibitor, read-out: IC50 (μM) Antag./Blocker/Inhibitor
T6 construct: purchased BPS Bioscience

[10] = biological target: T7, Endothelin Receptor Type A (EDNRA) (Homo sapiens, UniProt P25101); assay: Calcium flux secondary messenger assay, antagonist format; assay type: cell-based; conditions: read-out: IC50 (μM) Antag./Blocker/Inhibitor
T7 sequence (P25101 21-427): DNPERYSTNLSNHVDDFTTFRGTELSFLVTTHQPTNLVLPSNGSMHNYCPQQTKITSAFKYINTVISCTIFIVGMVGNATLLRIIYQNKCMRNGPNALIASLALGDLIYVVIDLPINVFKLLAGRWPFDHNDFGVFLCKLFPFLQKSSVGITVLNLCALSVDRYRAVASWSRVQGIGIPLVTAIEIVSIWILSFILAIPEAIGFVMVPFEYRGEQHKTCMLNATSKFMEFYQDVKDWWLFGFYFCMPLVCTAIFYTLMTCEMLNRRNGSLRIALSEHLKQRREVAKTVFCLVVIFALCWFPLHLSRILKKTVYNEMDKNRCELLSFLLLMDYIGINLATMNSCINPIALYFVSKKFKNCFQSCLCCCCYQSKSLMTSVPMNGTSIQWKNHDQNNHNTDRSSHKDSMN

[11] = biological target: T8, Insulin Receptor (tyrosine kinase) (INSR) (Homo sapiens, UniProt P06213); assay: Kinase binding assay (KINOMEscan); conditions: inhibitor, read-out: IC50 (μM) Antag./Blocker/Inhibitor
T8 construct: T7 phage fusion (most assays) or DNA tag for qPCR (the remaining kinases); made in house; host or cells: E. coli (BL21-derived, T7 phage display) or HEK-293
T8 sequence (P06213 28-1382): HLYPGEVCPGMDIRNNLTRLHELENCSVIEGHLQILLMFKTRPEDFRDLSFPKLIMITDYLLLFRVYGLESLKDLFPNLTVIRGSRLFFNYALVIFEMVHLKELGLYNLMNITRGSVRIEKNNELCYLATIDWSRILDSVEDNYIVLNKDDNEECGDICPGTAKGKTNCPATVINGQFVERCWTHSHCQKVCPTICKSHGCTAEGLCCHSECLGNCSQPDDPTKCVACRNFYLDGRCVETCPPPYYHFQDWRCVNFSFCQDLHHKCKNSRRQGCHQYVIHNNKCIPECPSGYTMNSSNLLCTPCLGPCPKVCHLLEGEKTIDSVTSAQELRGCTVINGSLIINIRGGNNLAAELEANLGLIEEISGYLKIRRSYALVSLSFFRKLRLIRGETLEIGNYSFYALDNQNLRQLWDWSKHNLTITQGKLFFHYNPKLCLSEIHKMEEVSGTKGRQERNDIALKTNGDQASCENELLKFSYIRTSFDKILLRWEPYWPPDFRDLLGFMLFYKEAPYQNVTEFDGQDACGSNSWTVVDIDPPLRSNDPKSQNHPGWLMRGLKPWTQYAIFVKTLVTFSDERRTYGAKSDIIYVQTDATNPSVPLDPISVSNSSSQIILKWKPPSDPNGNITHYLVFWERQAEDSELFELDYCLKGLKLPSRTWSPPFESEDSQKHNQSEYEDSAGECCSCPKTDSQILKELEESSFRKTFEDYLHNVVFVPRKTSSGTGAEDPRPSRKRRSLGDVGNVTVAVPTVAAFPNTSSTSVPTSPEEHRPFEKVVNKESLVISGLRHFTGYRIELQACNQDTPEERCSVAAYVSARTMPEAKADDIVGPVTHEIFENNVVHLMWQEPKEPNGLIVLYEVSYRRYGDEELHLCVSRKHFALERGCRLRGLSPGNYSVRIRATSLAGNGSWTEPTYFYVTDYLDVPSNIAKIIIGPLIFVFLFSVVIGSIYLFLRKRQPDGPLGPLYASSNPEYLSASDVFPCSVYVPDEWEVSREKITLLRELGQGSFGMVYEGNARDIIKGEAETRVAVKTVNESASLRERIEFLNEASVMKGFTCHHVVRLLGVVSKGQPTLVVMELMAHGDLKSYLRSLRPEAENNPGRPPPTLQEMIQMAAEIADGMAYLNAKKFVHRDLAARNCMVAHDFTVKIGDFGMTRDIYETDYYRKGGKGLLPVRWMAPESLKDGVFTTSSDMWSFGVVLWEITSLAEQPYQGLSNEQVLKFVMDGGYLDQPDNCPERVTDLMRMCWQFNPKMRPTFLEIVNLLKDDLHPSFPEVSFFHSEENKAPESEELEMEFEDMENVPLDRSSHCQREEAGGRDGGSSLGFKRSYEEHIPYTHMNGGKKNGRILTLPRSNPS

[12] = biological target: T9, Dopamine Receptor D1 (DRD1) (Homo sapiens, UniProt P21728); assay: cAMP secondary messenger assay, antagonist format; assay type: cell-based; conditions: read-out: IC50 (μM) Antag./Blocker/Inhibitor
T9 sequence (P21728 whole entry): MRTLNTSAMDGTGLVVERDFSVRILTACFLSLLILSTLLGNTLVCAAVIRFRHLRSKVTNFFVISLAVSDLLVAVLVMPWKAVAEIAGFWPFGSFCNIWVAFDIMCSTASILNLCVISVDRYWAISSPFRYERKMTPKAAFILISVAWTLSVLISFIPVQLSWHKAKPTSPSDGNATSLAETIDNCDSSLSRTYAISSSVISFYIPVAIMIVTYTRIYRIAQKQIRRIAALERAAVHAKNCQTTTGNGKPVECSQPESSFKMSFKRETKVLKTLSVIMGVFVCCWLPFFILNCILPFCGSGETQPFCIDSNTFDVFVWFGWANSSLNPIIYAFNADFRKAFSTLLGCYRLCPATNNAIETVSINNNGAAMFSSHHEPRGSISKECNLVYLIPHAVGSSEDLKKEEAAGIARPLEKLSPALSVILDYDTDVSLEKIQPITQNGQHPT

[13] = biological target: T10, Cannabinoid Receptor 2 (CNR2) (Homo sapiens, UniProt P34972); assay: cAMP secondary messenger assay, agonist format; assay type: cell-based; conditions: read-out: EC50 (μM) Agonist/Opener
T10 sequence (P34972 whole entry): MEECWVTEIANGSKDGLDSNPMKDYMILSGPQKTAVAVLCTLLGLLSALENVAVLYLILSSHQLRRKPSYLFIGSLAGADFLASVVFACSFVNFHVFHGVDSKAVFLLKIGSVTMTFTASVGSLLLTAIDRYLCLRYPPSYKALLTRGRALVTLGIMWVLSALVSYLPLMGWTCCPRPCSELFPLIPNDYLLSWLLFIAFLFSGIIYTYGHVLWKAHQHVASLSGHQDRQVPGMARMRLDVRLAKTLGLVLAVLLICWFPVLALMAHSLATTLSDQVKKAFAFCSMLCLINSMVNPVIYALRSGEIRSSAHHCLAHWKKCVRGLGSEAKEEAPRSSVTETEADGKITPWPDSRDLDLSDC

[14] = biological target: T7, Endothelin Receptor Type A (EDNRA); assay: Calcium flux secondary messenger assay, agonist format; assay type: cell-based; conditions: read-out: EC50 (μM) Agonist/Opener
serotonin transporter = biological target: T11, serotonin transporter (Homo sapiens, UniProt P31645); assay: cell-based; conditions: SERT, blocker, read-out: IC50 (μM) Antag./Blocker/Inhibitor
T11 construct: expressed in transfected cells
T11 sequence (P31645 whole entry): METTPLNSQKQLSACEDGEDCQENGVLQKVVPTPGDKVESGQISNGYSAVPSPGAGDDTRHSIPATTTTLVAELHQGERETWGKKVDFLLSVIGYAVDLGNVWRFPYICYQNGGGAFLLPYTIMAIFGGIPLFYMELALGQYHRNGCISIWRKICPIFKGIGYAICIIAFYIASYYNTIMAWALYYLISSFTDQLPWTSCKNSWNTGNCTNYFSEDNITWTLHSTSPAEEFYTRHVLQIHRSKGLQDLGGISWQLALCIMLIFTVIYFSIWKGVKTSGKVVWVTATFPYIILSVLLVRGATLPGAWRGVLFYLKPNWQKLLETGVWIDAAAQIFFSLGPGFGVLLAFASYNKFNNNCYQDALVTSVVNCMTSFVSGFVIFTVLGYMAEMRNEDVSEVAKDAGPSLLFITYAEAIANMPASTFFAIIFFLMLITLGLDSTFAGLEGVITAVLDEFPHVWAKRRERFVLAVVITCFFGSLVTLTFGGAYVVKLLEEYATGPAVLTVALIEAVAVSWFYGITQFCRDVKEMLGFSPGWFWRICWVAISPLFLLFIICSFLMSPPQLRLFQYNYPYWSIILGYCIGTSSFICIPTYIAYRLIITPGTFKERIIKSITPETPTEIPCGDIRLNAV

[15] = biological target: T12, 5-Hydroxytryptamine (Serotonin) Receptor 1A (5-HT1A) (Homo sapiens, UniProt P08908); assay: cAMP secondary messenger assay, antagonist format; assay type: cell-based; conditions: read-out: IC50 (μM) Antag./Blocker/Inhibitor
T12 construct: host or cells: cAMP Hunter cell line

[16] = biological target: Nuclear Hormone Glucocorticoid Receptor (GR) (Homo sapiens, UniProt P04150); assay: NHR Protein Interaction assay, agonist format; assay type: cell-based; conditions: read-out: EC50 (μM) Agonist/Opener
[17] = biological target: Adrenergic Receptor α2A (ADRA2A) (Homo sapiens, UniProt P08913); assay: cAMP secondary messenger assay, antagonist format; assay type: cell-based; conditions: read-out: IC50 (μM) Antag./Blocker/Inhibitor
[18] = biological target: Cannabinoid Receptor 1 (CNR1) (Homo sapiens, UniProt P21554); assay: cAMP secondary messenger assay, antagonist format; assay type: cell-based; conditions: read-out: IC50 (μM) Antag./Blocker/Inhibitor
dopamine transporter = dopamine transporter (Homo sapiens, UniProt Q01959); assay: Monoamine transporter uptake assay (Neurotransmitter Transporter Uptake Assay Kit), blocker format
[19] = biological target: Adrenergic Receptor α1A (ADRA1A) (Homo sapiens, UniProt P35348); assay: Calcium flux secondary messenger assay, antagonist format; assay type: cell-based; conditions: read-out: IC50 (μM) Antag./Blocker/Inhibitor
[20] = biological target: Muscarinic acetylcholine Receptor M1 (CHRM1) (Homo sapiens, UniProt P11229); assay: cell-based; conditions: Calcium Flux, antagonist, read-out: IC50 (μM) Antag./Blocker/Inhibitor
[21] = biological target: T10, Cannabinoid Receptor 2 (CNR2); assay: cAMP secondary messenger assay, antagonist format; assay type: cell-based; conditions: read-out: IC50 (μM) Antag./Blocker/Inhibitor
[22] = biological target: Dopamine Receptor D2 (DRD2S) (Homo sapiens, UniProt P14416); assay: cAMP secondary messenger assay, agonist format; assay type: cell-based; conditions: read-out: EC50 (μM) Agonist/Opener
Sequence of Dopamine Receptor D2 (DRD2S) (P14416 1-414 isoform P14416-2): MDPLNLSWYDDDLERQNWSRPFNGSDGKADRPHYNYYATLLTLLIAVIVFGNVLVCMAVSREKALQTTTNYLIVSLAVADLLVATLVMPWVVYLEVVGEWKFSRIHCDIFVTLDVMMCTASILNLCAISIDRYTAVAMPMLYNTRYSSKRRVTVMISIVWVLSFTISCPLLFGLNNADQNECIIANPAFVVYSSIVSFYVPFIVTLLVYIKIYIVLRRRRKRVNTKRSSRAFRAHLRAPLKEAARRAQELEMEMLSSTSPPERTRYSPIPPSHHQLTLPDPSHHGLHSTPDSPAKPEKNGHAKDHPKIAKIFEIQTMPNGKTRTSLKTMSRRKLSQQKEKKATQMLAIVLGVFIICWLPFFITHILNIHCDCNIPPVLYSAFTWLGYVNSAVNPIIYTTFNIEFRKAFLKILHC

[23] = biological target: CAV1.2 (Voltage-gated L-type calcium channel) (Homo sapiens, UniProt Q13936); assay: Ion channel assay, blocker format; assay type: cell-based; conditions: read-out: IC50 (μM) Antag./Blocker/Inhibitor
[24] = biological target: 5-Hydroxytryptamine (Serotonin) Receptor 2B (5-HT2B) (Homo sapiens, UniProt P41595); assay: Calcium flux secondary messenger assay, antagonist format; assay type: cell-based; conditions: read-out: IC50 (μM) Antag./Blocker/Inhibitor
[25] = biological target: T9, Dopamine Receptor D1 (DRD1); assay: cAMP secondary messenger assay, agonist format; assay type: cell-based; conditions: read-out: EC50 (μM) Agonist/Opener
[26] = biological target: T2, Opioid Receptor Delta 1 (OPRD1); assay: cAMP secondary messenger assay, agonist format; assay type: cell-based; conditions: read-out: EC50 (μM) Agonist/Opener
KvLQT1/minK = KvLQT1/minK (Homo sapiens, UniProt P51787); assay: Ion channel assay, blocker format; assay type: cell-based; conditions: read-out: IC50 (μM) Antag./Blocker/Inhibitor
[27] = biological target: NAV1.5 (tetrodotoxin-resistant voltage-gated sodium channel) (Homo sapiens, UniProt Q14524); assay: cell-based

T1 sequence (P07550 whole entry): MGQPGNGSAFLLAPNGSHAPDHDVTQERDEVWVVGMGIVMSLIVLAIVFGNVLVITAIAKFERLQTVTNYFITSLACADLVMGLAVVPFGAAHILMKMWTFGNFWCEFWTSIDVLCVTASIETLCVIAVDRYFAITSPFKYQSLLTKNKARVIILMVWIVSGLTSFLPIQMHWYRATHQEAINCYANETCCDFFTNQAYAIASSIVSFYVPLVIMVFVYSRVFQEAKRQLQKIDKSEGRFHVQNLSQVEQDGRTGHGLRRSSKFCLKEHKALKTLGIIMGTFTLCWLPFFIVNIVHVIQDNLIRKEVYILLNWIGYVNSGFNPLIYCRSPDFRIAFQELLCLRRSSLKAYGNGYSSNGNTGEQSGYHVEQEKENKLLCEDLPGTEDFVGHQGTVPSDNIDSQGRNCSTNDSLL

Compound: CN(C)CCc1ccn2ccccc12 [28-12 oxalate, 2-(indolizin-1-yl)-N, N-dimethylethan-1-amine oxalate]
- IC50 [1]: 10.2 µM
- EC50 [2]: > 30 µM
- IC50 [3]: > 30 µM
- IC50 [4]: 9.27 µM
- IC50 [5]: > 30 µM
- EC50 [6]: > 30 µM
- IC50 [7]: > 30 µM
- EC50 [8]: > 30 µM
- IC50 (PDE4D2): > 30 µM
- IC50 [9]: > 30 µM
- IC50 (COX2): > 30 µM
- IC50 [10]: > 30 µM
- IC50 [11]: > 30 µM
- IC50 [12]: > 30 µM
- EC50 [13]: > 30 µM
- EC50 [14]: > 30 µM
- IC50 (serotonin transporter): > 30 µM
- IC50 [15]: > 30 µM
- EC50 [16]: > 30 µM
- IC50 [17]: > 30 µM
- IC50 [18]: > 30 µM
- IC50 (dopamine transporter): > 30 µM
- IC50 [19]: 2.31 µM
- IC50 [20]: > 30 µM
- IC50 [21]: > 30 µM
- EC50 [22]: > 30 µM
- IC50 [23]: > 30 µM
- IC50 [24]: 3.28 µM
- EC50 [25]: > 30 µM
- EC50 [26]: > 30 µM
- IC50 (KvLQT1/minK): > 30 µM
- IC50 [27]: > 30 µM
